Laboratory results from US20250042886A1, “BIS(HETERO)ARYL THIOETHER OXADIAZINES AS FUNGICIDAL COMPOUNDS” (Bayer Aktiengesellschaft, priority 2021, published 2025).

Key:
Fusarium culmorum = Fusarium culmorum in vitro cell test; assay type: cell-based; details: 120 h, 50 μMol/l of active ingredient, liquid culture, 5 days incubation, read-out: efficacy (inhibition of fungal growth)
Description: B-10. Fusarium culmorum In Vitro Cell Test • Solvent: DMSO • Culture medium: 1 g KH2PO4 (VWR), 1 g K2HPO4 (VWR), 0.5 g Urea (VWR), 3 g KNO3 (Prolabo), 10 g saccharose (VWR), 0.5 g MgSO4, 7H2O (Sigma), 0.07 g CaCl2, 2H2O (Prolabo), 0.2 mg MnSO4, H2O (Sigma), 0.6 mg CuSO4, 5H2O (Sigma), 7.9 mg ZnSO4, 7H2O (Sigma), 0.1 mg H3BO3 (Merck), 0.14 mg NaMoO4, 2H2O (Sigma), 2 mg thiamine (Sigma), 0.1 mg biotine (VWR), 4 mg FeSO4, 7H2O (Sigma), QSP 1 liter • Inoculum: spores suspension
Fungicides were solubilized in DMSO and the solution used to prepare the required range of concentrations. The final concentration of DMSO used in the assay was ≤1%.
A spore suspension of F. culmorum was prepared and diluted to the desired spore density.
Fungicides were evaluated for their ability to inhibit spore germination and mycelium growth in liquid culture assay. The compounds were added in the desired concentration to the culture medium with spores. After 5 days incubation, fungi-toxicity of compounds was determined by spectrometric measurement of mycelium growth. Inhibition of fungal growth was determined by comparing the absorbance values in wells containing the fungicides with the absorbance in control wells without fungicides.

Botrytis cinerea [1] = experiment: Botrytis cinerea in vitro cell test; assay type: cell-based; details: 144 h, 50 μMol/l of active ingredient, liquid culture, 6 days incubation, read-out: efficacy (inhibition of fungal growth)
How it was run: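 Liquid-culture germination/growth test: spore suspension in synthetic medium (salts, urea, KNO3, saccharose, trace elements, thiamine, biotin) with compound dissolved in DMSO. Absorbance of mycelial growth measured at day 6, compared with untreated wells to give inhibition.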

[2] = test system: Colletotrichum lindemuthianum; experiment: Colletotrichum lindemuthianum in vitro cell test; assay type: cell-based; details: 144 h, liquid culture, 6 days incubation, read-out: efficacy (inhibition of fungal growth); for inhibition at 50 µM: 50 μMol/l of active ingredient; for inhibition at 20 ppm: 20 ppm of active ingredient
Description: (§1) B-7. Colletotrichum lindemuthianum In Vitro Cell Test • Solvent: DMSO • Culture medium: 14.6 g anhydrous D-glucose (VWR), 7.1 g Mycological Peptone (Oxoid), 1.4 g granulated Yeast Extract (Merck), QSP 1 liter • Inoculum: spores suspension Fungicides were solubilized in DMSO and the solution used to prepare the required range of concentrations. […] A spore suspension of C. lindemuthianum was prepared and diluted to the desired spore density. Fungicides were evaluated for their ability to inhibit spores germination and mycelium growth in liquid culture assay. The compounds were added in the desired concentration to the culture medium with spores. After 6 days incubation, fungi-toxicity of compounds was determined by spectrometric measurement of mycelium growth. Inhibition of fungal growth was determined by comparing the absorbance values in wells containing the fungicides with the absorbance in control wells without fungicides.

Alternaria alternata = Alternaria alternata in vitro cell test; assay type: cell-based; details: 120 h, 50 μMol/l of active ingredient, liquid culture, 5 days incubation, read-out: efficacy (inhibition of fungal growth)
Description: as §1, with “B-5. Alternaria alternata In” for “B-7. Colletotrichum lindemuthianum In”, “of A. alternata” for “of C. lindemuthianum”, “inhibit spore” for “inhibit spores”, “After 5” for “After 6”

Pyricularia oryzae = experiment: microbe, parasite or virus in culture; assay type: cell-based; details: 120 h, read-out: efficacy (inhibition of fungal growth), 50 μMol/l of active ingredient, liquid culture, 5 days incubation
Pyrenophora teres = Pyrenophora teres in vitro cell test; assay type: cell-based; details: 144 h, 50 μMol/l of active ingredient, liquid culture, 6 days incubation, read-out: efficacy (inhibition of fungal growth)
Description: as §1, with “B-8. Pyrenophora teres In” for “B-7. Colletotrichum lindemuthianum In”, “Inoculum: spore” for “Inoculum: spores”, “of P. teres” for “of C. lindemuthianum”, “inhibit spore” for “inhibit spores”

[3] = Measurement of Log P values by HPLC on reversed phase columns (EEC directive 79/831 Annex V.A8); assay type: physicochemical; details: Table 1, compounds of formula (I); method [a]: LC-UV, acidic range, 0.1% formic acid in water and acetonitrile
Botrytis cinerea [4] = experiment: In vivo preventive test on Botrytis cinerea (grey mould); details: 500 ppm of active ingredient, sprayed on young gherkin or cabbage plants 24 h before inoculation, evaluated 4 to 5 days after inoculation, read-out: efficacy
Description: (§2) The active ingredients were made soluble and homogenized in a mixture of Dimethyl sulfoxide/Acetone//Tween® 80 and then diluted in water to the desired concentration. The young plants of gherkin or cabbage were treated by spraying the active ingredient prepared as described above. Control plants were treated only with an aqueous solution of Acetone/Dimethyl sulfoxide/Tween® 80. After 24 hours, the plants were contaminated by spraying the leaves with an aqueous suspension of Botrytis cinerea spores.

Alternaria brassicae = experiment: In vivo preventive test on Alternaria brassicae (leaf spot on radish or cabbage); details: 500 ppm of active ingredient, sprayed on young radish or cabbage plants 24 h before inoculation, evaluated 3 to 4 days after inoculation, read-out: efficacy
Description: as §2, with “B-1. […] The active” for “The active”, “plants of radish or cabbage” for “plants of gherkin or cabbage”, “suspension of Alternaria brassicae spores.” for “suspension of Botrytis cinerea spores.”

[5] = test system: Colletotrichum lindemuthianum; experiment: In vivo preventive test on Colletotrichum lindemuthianum (leaf spot on bean); details: 168 h, 500 ppm of active ingredient, sprayed on young bean plants 24 h before inoculation, evaluated 7 days after inoculation, read-out: efficacy
Description: as §2, with “B-4. […] The active” for “The active”, “plants of bean were treated” for “plants of gherkin or cabbage were treated”, “suspension of Colletotrichum lindemuthianum spores.” for “suspension of Botrytis cinerea spores.”

SMILES	inhibition at 50 µM (Fusarium culmorum) [%]	inhibition at 50 µM (Botrytis cinerea [1]) [%]	inhibition at 50 µM [2] [%]	inhibition at 50 µM (Alternaria alternata) [%]	inhibition at 50 µM (Pyricularia oryzae) [%]	inhibition at 50 µM (Pyrenophora teres) [%]	chromatographic logP [3]	pest or weed control at 500 ppm (Botrytis cinerea [4]) [%]	pest or weed control at 500 ppm (Alternaria brassicae) [%]	pest or weed control at 500 ppm [5] [%]	inhibition at 20 ppm [2] [%]
Cc1cc([C@@H]2CON=C(c3c(Sc4cccc(Cl)c4F)nnc(C)c3C)N2)c(C)s1 (racemic) [Compound I-071]	90 to 100	90 to 100	90 to 100	90 to 100	90 to 100	90 to 100	3.58	–	–	–	–
Cc1ccc(C2CON=C(c3c(Sc4cccc(Cl)c4)nnc(C)c3C)N2)s1 (racemic) [Compound I-104]	90 to 100	90 to 100	90 to 100	90 to 100	90 to 100	90 to 100	3.14	–	–	–	–
Cc1ccc([C@H]2CON=C(c3c(Sc4cccc(Cl)c4Cl)nnc4ccccc34)N2)s1 (racemic) [Compound I-131]	–	90 to 100	90 to 100	90 to 100	80 to 89	90 to 100	3.8	90 to 100	90 to 100	–	–
Cc1ccc(C2CON=C(c3c(Sc4cccc(Cl)c4F)nnc(C)c3C)N2)s1 (racemic) [Compound I-103]	80 to 89	90 to 100	90 to 100	90 to 100	90 to 100	90 to 100	3.21	–	–	–	–
Cc1ccc(C[C@@H]2CON=C(c3cc(Cl)nnc3Sc3ccc(C(F)(F)F)cc3)N2)c(C)c1 (racemic) [Compound I-027]	–	–	–	–	–	–	5.31	–	90 to 100	90 to 100	–
Cc1ccc([C@H]2CON=C(c3c(Sc4ccccc4C)nnc4ccccc34)N2)s1 (racemic) [Compound I-110]	–	90 to 100	–	–	–	–	3.45	90 to 100	90 to 100	70 to 79	–
Cc1cc([C@H]2CON=C(c3c(Sc4cccc(F)c4)nnc(C)c3C)N2)c(C)s1 (racemic) [Compound I-050]	90 to 100	90 to 100	90 to 100	90 to 100	90 to 100	90 to 100	3.16	90 to 100	90 to 100	–	–
Cc1ccc(C[C@H]2CON=C(c3nc(C)ncc3Sc3cccc(OC(F)(F)F)c3)N2)c(C)c1 (racemic) [Compound I-026]	–	–	–	–	–	–	5.39	–	–	80 to 89	70 to 79
Cc1ccc([C@H]2CON=C(c3c(Sc4cccc(F)c4)nnc(C)c3C)N2)s1 (racemic) [Compound I-125]	90 to 100	90 to 100	90 to 100	70 to 79	80 to 89	80 to 89	2.83	–	–	–	–
Cc1ccc([C@H]2CON=C(c3c(Sc4ccccc4Cl)nnc4ccccc34)N2)s1 (racemic) [Compound I-067]	–	90 to 100	80 to 89	90 to 100	70 to 79	90 to 100	3.4	90 to 100	90 to 100	–	–
COc1cccc(Sc2nnc3ccccc3c2C2=NOC[C@H](c3ccc(C)s3)N2)c1 (racemic) [Compound I-090]	90 to 100	90 to 100	90 to 100	–	–	80 to 89	3.21	90 to 100	–	80 to 89	–
Cc1ccc(C[C@H]2CON=C(c3nc(C)ncc3Sc3cccc(OC(F)(F)F)c3)N2)c(Cl)c1 (racemic) [Compound I-021]	–	–	–	–	–	–	5.46	–	–	70 to 79	70 to 79
Cc1cc([C@H]2CON=C(c3c(Sc4ccc(F)c(F)c4)nnc(C)c3C)N2)c(C)s1 (racemic) [Compound I-091]	90 to 100	90 to 100	90 to 100	80 to 89	80 to 89	90 to 100	3.33	90 to 100	80 to 89	–	–
Cc1ccc([C@H]2CON=C(c3c(Sc4ccccc4)nnc4ccccc34)N2)s1 (racemic) [Compound I-097]	80 to 89	90 to 100	90 to 100	80 to 89	80 to 89	90 to 100	3.14	90 to 100	80 to 89	–	–
Cc1cc([C@H]2CON=C(c3c(Sc4ccccc4Cl)nnc(C)c3C)N2)c(C)s1 (racemic) [Compound I-059]	–	90 to 100	–	80 to 89	–	90 to 100	3.31	90 to 100	90 to 100	–	–
FC(F)(F)c1ccc(Sc2nnc(Cl)cc2C2=NOC[C@@H](Cc3ccc(Cl)cc3Cl)N2)cc1 (racemic) [Compound I-003]	–	–	–	–	–	–	4.93	90 to 100	–	70 to 79	–
